Entries after “also recorded” stand apart in the source; their conditions may differ. Ends that are not written are not given here. * marks the point of attachment. Biotin = O=C1N[C@H]2[C@H](CS[C@H]2CCCCC(=O)*)N1
Columns and labels:
bacterial strain MSI001 = test: In vitro antibacterial assay (colony counting); type: cell-based, Escherichia coli; conditions: 1 × 10^3 CFU, peptide 0.25, 0.5, 1 μmol/L, 37 °C, 1-8 h, colony count, n = 3
Description: Fig. 6 Antimicrobial activity of the C7C-LL37 fusion peptides in vitro. a Primary structures and physical properties of the C7C and LL37 fusion peptides, including LL37, VTK-LL37, LL37-VTK, KYY-LL37 and LL37-KYY, ISS-LL37, INS-LL37. Net charge, PI and GRAVY values were acquired as described above. b Inhibitory effect of C7C-LL37 fusion peptides on bacterial growth. A C7C-LL37 fusion peptide or LL37 alone was added to the cultured bacterial strain MSI001 (1 × 10^3 CFU) at final concentrations of 0.25 μmol/L, 0.5 μmol/L and 1 μmol/L. Sterile DPBS was used as control. After incubation with the C7C-LL37 or LL37 peptides at 37 °C for different times (1-8 h), bacterial colonies were counted. n = 3. *P < 0.05, VTK-LL37 group compared to LL37 group; ^#P < 0.05, LL37-VTK group compared to LL37 group. c, d Inhibitory effect of VTK-LL37 on biofilm formation. The VTK-LL37 or LL37 peptide was added to the bacterial culture at a final concentration of 0-4 μmol/L and incubated at 37 °C for 3 days. Bacterial culture medium and the peptides were refreshed every day. The biofilm was stained with 1% crystal violet, and the precipitates were dissolved in 95% ethanol, followed by detection of absorbance at 570 nm (A570) (c). Moreover, the biofilm was observed under a microscope (d). n = 5. *P < 0.05, VTK-LL37 group compared to LL37 group […]

DEGQ protein = test: SPRi assay of peptide binding to DEGQ protein; parameters: species or system E. coli MSI001; conditions: control peptide immobilized on chip, value printed in picture of Fig. 8e
Description: (§1) Protein profiles were determined by cPCoA distance among samples and characterized by close intragroup distances among samples. b Hierarchical clustering analysis of proteins from the HEE, VTK and input groups. […] Label-free mass spectrometry was used to quantitate proteins from the HEE, VTK and input groups. Red represents high expression, while blue represents low expression. c Volcano plot of proteins from the VTK group and HEE group. […] DEGP or DEGQ protein at different concentrations (5 nmol/L, 10 nmol/L, 20 nmol/L) in solution flowed on an SPRi chip. Binding data were collected and analyzed by commercial SPRi analysis software (Plexera SPR Data Analysis Model, Plexera, USA).
(§2) To measure the binding affinity of peptides with targeted proteins, a PlexArray HT A100 (Plexera, USA) Surface Plasmon Resonance imaging (SPRi) system was used to monitor the whole procedure in real time. Briefly, a chip with a well-prepared peptide microarray was assembled with a plastic flow cell for sample loading. The operation details for the PlexArray HT were as described previously.[65] The purified protein samples were prepared at determined concentrations in PBS running buffer, while glycine-HCl buffer (10 mmol/L, pH 2.0) was used for regeneration. Binding data were collected and analyzed by SPR Data Analysis Module software (Plexera, USA). […]

DEGP protein = test: SPRi assay of peptide binding to DEGP protein; parameters: species or system E. coli MSI001; conditions: control peptide immobilized on chip, value printed in picture of Fig. 8e
Description: as §1, §2

[1] = target: T1, DEGQ protein, purified (SPRi analyte) (E. coli (strain MSI001), UniProt P39099 28-455); test: SPR; conditions: both partners purified
T1 sequence (looked up): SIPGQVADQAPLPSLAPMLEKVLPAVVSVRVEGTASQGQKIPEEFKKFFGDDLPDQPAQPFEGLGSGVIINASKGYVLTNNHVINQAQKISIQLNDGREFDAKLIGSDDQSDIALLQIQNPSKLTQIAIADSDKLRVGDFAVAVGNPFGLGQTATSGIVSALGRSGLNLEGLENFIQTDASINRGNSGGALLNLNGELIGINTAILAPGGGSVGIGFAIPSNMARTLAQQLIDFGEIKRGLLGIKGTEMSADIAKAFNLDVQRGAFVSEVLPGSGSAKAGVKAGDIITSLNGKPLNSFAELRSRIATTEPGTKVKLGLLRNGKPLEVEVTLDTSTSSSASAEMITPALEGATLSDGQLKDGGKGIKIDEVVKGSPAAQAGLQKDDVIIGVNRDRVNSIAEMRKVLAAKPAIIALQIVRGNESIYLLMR

[2] = target: T2, DEGP protein, purified (SPRi analyte) (E. coli (strain MSI001), UniProt P0C0V0 27-474); test: SPR; conditions: both partners purified
T2 sequence (looked up): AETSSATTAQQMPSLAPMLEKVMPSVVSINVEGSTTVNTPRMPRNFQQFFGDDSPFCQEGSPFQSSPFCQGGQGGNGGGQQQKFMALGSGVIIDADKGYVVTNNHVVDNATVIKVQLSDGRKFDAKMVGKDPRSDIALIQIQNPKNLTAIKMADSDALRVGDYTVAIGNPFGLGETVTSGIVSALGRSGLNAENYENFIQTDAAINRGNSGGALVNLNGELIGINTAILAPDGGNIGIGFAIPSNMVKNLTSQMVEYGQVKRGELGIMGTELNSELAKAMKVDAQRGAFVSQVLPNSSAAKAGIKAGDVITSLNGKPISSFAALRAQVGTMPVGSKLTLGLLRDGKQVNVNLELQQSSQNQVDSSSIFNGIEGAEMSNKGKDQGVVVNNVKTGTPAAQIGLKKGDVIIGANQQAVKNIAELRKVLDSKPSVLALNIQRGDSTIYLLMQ

## LLGDFFRKSKEKIGKEFKRIVQRIKDFLRNLVPRTESVPGVGCVTKLGSLC [LL37-VTK]
Bacterial strain MSI001
  inhibitory effect on bacterial growth of MSI001: inhibited MSI001 bacterial growth but also showed stronger antibiotic activity than LL37 alone in the early stage (1-3 h); also recorded: stronger bacteriostatic activity than other LL37 fusion peptides

## Biotin-CHEEWLPAC (cysteine pairing not given here) [control HEE heptapeptide]
DEGQ protein
  Kd: 1000 nM
DEGP protein
  Kd: 5250 nM

B1: VTK heptapeptide VTKLGSL, synthesized (immobilised on the SPRi chip) (peptide)
peptide: VTKLGSL
notes: also called VTK peptide; source: synthetic peptide
[1]
  Kd: 1.73 nM
[2]
  Kd: 15.8 nM
